Patent US20190390161A1, “CULTURE MEDIUM COMPRISING OLIGOPEPTIDES” (Evonik Degussa GmbH, priority 2017, published 2019)
Peptide text beside a SMILES is read from it.

Assays:
[1] = cited from earlier work; for Solubility Xxx: free amino acid, CRC Handbook of Chemistry and Physics; for solubility: prior art values, background
[2] = test system: antibody producing Chinese Hamster Ovary (CHO) cells (Subclone DG44); assay: Experiment 3: cell growth (VCD) in TC-42 media, L-valine or L-isoleucine replaced by lysyl dipeptides; format: cell-based; design: Viable cell densities (VCD) / maximum cell densities (max VCD): unit: 10^6 cells/ml; conditions: for maximum cell densities (max VCD) / Viable cell densities (VCD): TC-42 media of table 6; for growth curve and maximum cell density compared with reference medium (FIG. 3): equimolar amounts
Excerpt: (§1) The influence of the L-lysine dipeptides on the growth of antibody producing Chinese Hamster Ovary (CHO) cells (Subclone DG44; Life Technologies Cooperation, Carslbad, USA) in comparison to media containing either the corresponding free amino acids or the corresponding L-alanine dipeptides was investigated. For this purpose, the cells were cultivated in a TC-42 media produced by Xell AG, Bielefeld, Germany in which the amino acids provided within the experiments by dipeptides were lacking. The concentrations of these amino acids were adjusted in such a way that, taking into account a complete hydrolysis of the dipeptides into the amino acids, the concentration of all amino acids were the same in all media tested within this experiment.
(§2) Starting from a preparatory culture an initial viable cell density (VCD) of 0.3·10^6 cells/ml was adjusted in shaking flasks by adding the test media. After 2-4 days a part of the cell culture was transferred into a new shaking flask and an initial viable cell density (VCD) of 0.3.10^6 cells/ml was adjusted by adding new test media. This was done two times and then the cell growth was followed by measuring the viable cell density (VCD) for up to 24 days.
Experiment 3: Comparison of the Cell Growths obtained with TC-42 media in which L-valine and L-isoleucine, respectively, are replaced by L-lysyl-L-valine and L-lysyl-L-isoleucine, respectively.
For this experiment a TC-42 media produced by Xell AG, Bielefeld, Germany in which L-lysine, L-valine and L-isoleucine were lacking was used. These amino acids and the dipeptides L-lysyl-L-valine and L-lysyl-L-isoleucine, respectively, were then added to the test media in the concentration listed in table 6.

[3] = Solubility found for Lys-Xxx dipeptides; conditions: as hydrochloride or as acetate (footnotes 6, 7)
[4] = test system: antibody producing Chinese Hamster Ovary (CHO) cells (Subclone DG44); assay: Experiment 1: cell growth (VCD) in TC-42 media, cysteine/cystine or leucine replaced by dipeptides; format: cell-based; design: Viable cell densities (VCD) / maximum cell densities (max. VCD): unit not given here
Excerpt: as §1, with “experiment. […] Experiment 1: Comparison of the Cell Growths Obtained with TC-42 media in which L-cysteine/L-cystine is replaced by bis-L-alanyl-L-cystine, bis-L-prolyl-L-cystine or bis-L-lysyl-L-cystine and L-leucine is replaced by […] For this experiment a TC-42 media produced by Xell AG, Bielefeld, Germany in which […]-cystine and L-leucine were deliberately left out of the initial formulation. […] [table]” for “experiment.”

[5] = test system: antibody producing Chinese Hamster Ovary (CHO) cells (Subclone DG44); assay: Experiment 2: cell growth (VCD) in TC-42 media, L-tyrosine replaced by dipeptides; format: cell-based; design: key to Viable cell densities (VCD) / maximum cell densities (max VCD): 10^6 cells/ml
Excerpt: as §1, §2
These amino acids and the dipeptides L-alanyl-L-tyrosine dihydrate and L-lysyl-L-tyrosine acetate, respectively, were then added to the test media in the concentration listed in table 4.

## N[C@@H](CSSC[C@H](N)C(=O)O)C(=O)O [L-Cystine]
[1]
  Solubility Xxx: 0.1 g/1000 g solution
  solubility: 0.1 g/ltr

## CC[C@H](C)[C@H](N)C(=O)O [L-Isoleucine]
[1]
  Solubility Xxx: 39.6 g/1000 g solution

## CC(C)C[C@H](N)C(=O)O [L-Leucine]
[1]
  Solubility Xxx: 23.7 g/1000 g solution

## CC(C)[C@H](N)C(=O)O [L-Valine]
[1]
  Solubility Xxx: 81.3 g/1000 g solution

## CC[C@H](C)[C@H](NC(=O)[C@@H](N)CCCCN)C(=O)O [Lys-Ile, L-Lysyl-L-isoleucine]
[2]
  maximum cell densities (max VCD): 10.67
  growth curve and maximum cell density compared with reference medium (FIG. 3): a slower growth and a lower maximum cell density
[2]; Time 0.0
  Viable cell densities (VCD): 0.44
[2]; Time 2.8
  Viable cell densities (VCD): 1.78
[2]; Time 3.0
  Viable cell densities (VCD): 0.48
[2]; Time 6.8
  Viable cell densities (VCD): 3.36
[2]; Time 6.9
  Viable cell densities (VCD): 0.39
[2]; Time 7.9
  Viable cell densities (VCD): 0.60
[2]; Time 8.8
  Viable cell densities (VCD): 1.04
[2]; Time 9.8
  Viable cell densities (VCD): 1.73
[2]; Time 10.8
  Viable cell densities (VCD): 2.73
[2]; Time 11.8
  Viable cell densities (VCD): 4.62
[2]; Time 12.9
  Viable cell densities (VCD): 5.77
[2]; Time 13.8
  Viable cell densities (VCD): 7.19
[2]; Time 14.8
  Viable cell densities (VCD): 9.27
[2]; Time 15.9
  Viable cell densities (VCD): 9.45
[2]; Time 16.9
  Viable cell densities (VCD): 9.40
[2]; Time 17.9
  Viable cell densities (VCD): 10.56
[2]; Time 18.8
  Viable cell densities (VCD): 10.67
[2]; Time 19.8
  Viable cell densities (VCD): 9.18
[2]; Time 21.0
  Viable cell densities (VCD): 8.77
[3]
  Solubility Lys-Xxx found: >500 ^7) g/1000 g solution

## NCCCC[C@H](N)C(=O)N[C@@H](Cc1ccc(O)cc1)C(=O)O [Lys-Tyr, L-Lysyl-L-tyrosine acetate]
[3]
  Solubility Lys-Xxx found: >330 ^7) g/1000 g solution

## CC(C)[C@H](NC(=O)[C@@H](N)CCCCN)C(=O)O [Lys-Val, L-Lysyl-L-valine] (H-Lys-Val-OH)
[2]
  maximum cell densities (max VCD): 17.25
  growth curve and maximum cell density compared with reference medium (FIG. 3): almost matching those of the reference medium
[2]; Time 0.0
  Viable cell densities (VCD): 0.43
[2]; Time 2.8
  Viable cell densities (VCD): 2.04
[2]; Time 3.0
  Viable cell densities (VCD): 0.50
[2]; Time 6.8
  Viable cell densities (VCD): 4.37
[2]; Time 6.9
  Viable cell densities (VCD): 0.39
[2]; Time 7.9
  Viable cell densities (VCD): 0.61
[2]; Time 8.8
  Viable cell densities (VCD): 1.15
[2]; Time 9.8
  Viable cell densities (VCD): 2.07
[2]; Time 10.8
  Viable cell densities (VCD): 3.35
[2]; Time 11.8
  Viable cell densities (VCD): 5.79
[2]; Time 12.9
  Viable cell densities (VCD): 8.34
[2]; Time 13.8
  Viable cell densities (VCD): 11.08
[2]; Time 14.8
  Viable cell densities (VCD): 15.45
[2]; Time 15.9
  Viable cell densities (VCD): 16.84
[2]; Time 16.9
  Viable cell densities (VCD): 17.25
[2]; Time 17.9
  Viable cell densities (VCD): 16.27
[2]; Time 18.8
  Viable cell densities (VCD): 14.62
[3]
  Solubility Lys-Xxx found: >400 ^6) g/1000 g solution

## Bis-L-prolyl-L-cystine [Pro2-Cyss, reference compound]
[4]; TC-42 media of table 2
  maximum cell densities (max. VCD): 0.79
[4]; Time 0.0, TC-42 media of table 2
  Viable cell densities (VCD): 0.31
[4]; Time 0.7, TC-42 media of table 2
  Viable cell densities (VCD): 0.37
[4]; Time 2.0, TC-42 media of table 2
  Viable cell densities (VCD): 0.32
[4]; Time 2.7, TC-42 media of table 2
  Viable cell densities (VCD): 0.21
[4]; Time 3.6, TC-42 media of table 2
  Viable cell densities (VCD): 0.18
[4]; Time 3.7, TC-42 media of table 2
  Viable cell densities (VCD): 0.30
[4]; Time 4.7, TC-42 media of table 2
  Viable cell densities (VCD): 0.24
[4]; Time 5.8, TC-42 media of table 2
  Viable cell densities (VCD): 0.14
[4]; Time 6.7, TC-42 media of table 2
  Viable cell densities (VCD): 0.08
[4]; Time 6.8, TC-42 media of table 2
  Viable cell densities (VCD): 0.32
[4]; Time 7.8, TC-42 media of table 2
  Viable cell densities (VCD): 0.43
[4]; Time 8.7, TC-42 media of table 2
  Viable cell densities (VCD): 0.41
[4]; Time 9.7, TC-42 media of table 2
  Viable cell densities (VCD): 0.34
[4]; Time 10.6, TC-42 media of table 2
  Viable cell densities (VCD): 0.27
[4]; Time 11.6, TC-42 media of table 2
  Viable cell densities (VCD): 0.79
[4]; same molar amount of cysteine and cystine in the form of dipeptides
  cell growth performance compared with reference medium (FIG. 1): almost no growth

## L-Alanyl-L-tyrosine × 2H2O [Ala-Tyr]
[1]; Degussa product brochure, cystine value WO 2011/133902
  Solubility Ala-Xxx: 15.3 g/1000 g solution
[1]
  solubility: 8.7 g/ltr
[5]; TC-42 media of table 4
  maximum cell densities (max VCD): 12.44
[5]; Time [d] 0.0, TC-42 media of table 4
  Viable cell densities (VCD): 0.38
[5]; Time [d] 0.7, TC-42 media of table 4
  Viable cell densities (VCD): 0.51
[5]; Time [d] 1.7, TC-42 media of table 4
  Viable cell densities (VCD): 1.22
[5]; Time [d] 2.7, first entry, TC-42 media of table 4
  Viable cell densities (VCD): 2.22
[5]; Time [d] 2.7, second entry (after transfer into new flask), TC-42 media of table 4
  Viable cell densities (VCD): 0.35
[5]; Time [d] 4.0, TC-42 media of table 4
  Viable cell densities (VCD): 0.77
[5]; Time [d] 4.9, TC-42 media of table 4
  Viable cell densities (VCD): 1.59
[5]; Time [d] 5.7, TC-42 media of table 4
  Viable cell densities (VCD): 1.93
[5]; Time [d] 6.7, first entry, TC-42 media of table 4
  Viable cell densities (VCD): 2.82
[5]; Time [d] 6.7, second entry (after transfer into new flask), TC-42 media of table 4
  Viable cell densities (VCD): 0.31
[5]; Time [d] 7.7, TC-42 media of table 4
  Viable cell densities (VCD): 0.48
[5]; Time [d] 8.7, TC-42 media of table 4
  Viable cell densities (VCD): 1.17
[5]; Time [d] 9.7, TC-42 media of table 4
  Viable cell densities (VCD): 1.92
[5]; Time [d] 11.0, TC-42 media of table 4
  Viable cell densities (VCD): 4.11
[5]; Time [d] 11.8, TC-42 media of table 4
  Viable cell densities (VCD): 6.12
[5]; Time [d] 12.7, TC-42 media of table 4
  Viable cell densities (VCD): 8.29
[5]; Time [d] 13.7, TC-42 media of table 4
  Viable cell densities (VCD): 10.49
[5]; Time [d] 14.7, TC-42 media of table 4
  Viable cell densities (VCD): 12.44
[5]; Time [d] 15.7, TC-42 media of table 4
  Viable cell densities (VCD): 11.34
[5]; Time [d] 16.7, TC-42 media of table 4
  Viable cell densities (VCD): 12.42
[5]; Time [d] 17.9, TC-42 media of table 4
  Viable cell densities (VCD): 11.06
[5]; Time [d] 18.9, TC-42 media of table 4
  Viable cell densities (VCD): 11.31
[5]; Time [d] 19.7, TC-42 media of table 4
  Viable cell densities (VCD): 11.20
[5]; Time [d] 20.7, TC-42 media of table 4
  Viable cell densities (VCD): 11.13
[5]; Time [d] 21.7, TC-42 media of table 4
  Viable cell densities (VCD): 11.24
[5]; equimolar amounts of tyrosine
  growth curves compared with reference medium (FIG. 2): no significant difference
  maximum cell density compared with reference medium: slightly higher values
